From patent publication US20170049100A1 (priority 2014, published 2017)
≈ marks a conversion by molar mass, not a printed value. Like-named read-outs stand apart in the source and are kept apart here.

What was measured:
[1] = system: Phytophthora infestans; assay: microbe, parasite or virus in culture; type: cell-based; settings: for EC50: Phytophthora infestans, 120 h
[2] = cited from earlier work
[3] = system: Phytophthora infestans; type: in vivo; settings: preventive; 3 and 6 I/ha; after incubating for 5 days
[4] = system: Phytophthora infestans; type: in vivo; settings: applied at the same time as Phytophthora infestans; 5 or 7 days; 0.5-1-3-6 L/ha

| Compound | Effectiveness of 2-ethyl-hexanol (% of control) ([1]; 0.000512 μg 2-ethyl-hexanol/mL) | Effectiveness of 2-ethyl-hexanol (% of control) ([1]; 0.00256 μg 2-ethyl-hexanol/mL) | Effectiveness of 2-ethyl-hexanol (% of control) ([1]; 0.0128 μg 2-ethyl-hexanol/mL) | Effectiveness of 2-ethyl-hexanol (% of control) ([1]; 0.064 μg 2-ethyl-hexanol/mL) | Effectiveness of 2-ethyl-hexanol (% of control) ([1]; 0.32 μg 2-ethyl-hexanol/mL) | Effectiveness of 2-ethyl-hexanol (% of control) ([1]; 1.6 μg 2-ethyl-hexanol/mL) | Effectiveness of 2-ethyl-hexanol (% of control) ([1]; 8 μg 2-ethyl-hexanol/mL) | EC50 [1] | biodegradable ([2]; in 5 days) | Effectiveness of octanol (% of control) ([1]; 0.000512 μg octanol/mL) | Effectiveness of octanol (% of control) ([1]; 0.00256 μg octanol/mL) | Effectiveness of octanol (% of control) ([1]; 0.0128 μg octanol/mL) | Effectiveness of octanol (% of control) ([1]; 0.064 μg octanol/mL) | Effectiveness of octanol (% of control) ([1]; 0.32 μg octanol/mL) | Effectiveness of octanol (% of control) ([1]; 1.6 μg octanol/mL) | Effectiveness of octanol (% of control) ([1]; 8 μg octanol/mL) | intensity of the infection of the potato leaves caused by Phytophthora infestans [3] | development of the pathogen on the surface of potato leaves [4] | biodegradable ([2]; in 30 days) |
| --- | --- | --- | --- | --- | --- | --- | --- | --- | --- | --- | --- | --- | --- | --- | --- | --- | --- | --- | --- |
| CCCCC(CC)CO (centres unmarked) [2-ethyl-hexanol] | 16.1 % of control | 42.3 % of control | 60.1 % of control | 71.7 % of control | 79.8 % of control | 82.2 % of control | 84.6 % of control | 6.8 ng/mL (≈ 0.0522 µM) | 100% | – | – | – | – | – | – | – | – | – | – |
| CCCCCCCCO [octanol, octan-1-ol] | – | – | – | – | – | – | – | 2.7 ng/mL (≈ 0.0207 µM) | – | 23.6 % of control | 49.4 % of control | 72.2 % of control | 84.8 % of control | 92.5 % of control | 93.3 % of control | 94.0 % of control | greatly reduces | completely inhibits | more than 70% |
